For one test, the target named is B-Raf V600E (Homo sapiens, UniProt P15056, V600E). Nature of the test: B-Raf V600E kinase activity assay. The format is biochemical. The following applies: under the test conditions employed; read-out: IC50 toward kinase B-Raf V600E.
The next test deals with T1, Fms (Homo sapiens, UniProt P07333).
T1 construct: purchased Upstate Biotech 14-551
Nature of the test: Fms biochemical assay (AlphaScreen or 33P-ATP). The note with it: under the test conditions employed; read-out: IC50 toward kinase Fms. The source says:
Each sample was at 5% DMSO.

Another test has as its target Kdr (Homo sapiens, UniProt P35968). Nature of the test: Kdr kinase activity assay. It counts as biochemical. The following applies: under the test conditions employed; read-out: IC50 toward kinase Kdr.
The next test deals with T2, Kit (Homo sapiens, UniProt P10721).
T2 construct: P1332.N6 BI PTP KIT M552-K948-X COD; made in house; host or cells: E. coli BL21(DE3)RIL, co-expressed with PTP1B
Nature of the test: c-kit biochemical assay (AlphaScreen or 33P-ATP). The note with it: under the test conditions employed; read-out: IC50 toward kinase Kit. The protocol: C-kit kinase was at 1 ng per sample.
The c-kit enzyme used in the above assay was either obtained from Cell Signaling Technology (Cat. #7754) or was prepared as follows: A plasmid encoding kit (DNA and encoded protein sequences shown below) was engineered using common polymerase chain reaction (PCR) methods. Complementary DNA cloned from various human tissues were purchased from Invitrogen, and these were used as substrates in the PCR reactions. Specific custom synthetic oligonucleotide primers were designed to initiate the PCR product, and also to provide the appropriate restriction enzyme cleavage sites for ligation with the plasmids. The entire sequence encoding the enzyme was made through a gene synthesis procedure, using custom synthetic oligonucleotides covering the entire coding sequence (Invitrogen, see below).

Each structure is given as a SMILES string. Some results are limits rather than exact numbers.

Our source for the IC50 values is patent US7872018B2, “Compounds and methods for kinase modulation, and indications therefor” (Plexxikon, Inc., priority 2006, dated 2011).

T1 sequence (P07333 20-972): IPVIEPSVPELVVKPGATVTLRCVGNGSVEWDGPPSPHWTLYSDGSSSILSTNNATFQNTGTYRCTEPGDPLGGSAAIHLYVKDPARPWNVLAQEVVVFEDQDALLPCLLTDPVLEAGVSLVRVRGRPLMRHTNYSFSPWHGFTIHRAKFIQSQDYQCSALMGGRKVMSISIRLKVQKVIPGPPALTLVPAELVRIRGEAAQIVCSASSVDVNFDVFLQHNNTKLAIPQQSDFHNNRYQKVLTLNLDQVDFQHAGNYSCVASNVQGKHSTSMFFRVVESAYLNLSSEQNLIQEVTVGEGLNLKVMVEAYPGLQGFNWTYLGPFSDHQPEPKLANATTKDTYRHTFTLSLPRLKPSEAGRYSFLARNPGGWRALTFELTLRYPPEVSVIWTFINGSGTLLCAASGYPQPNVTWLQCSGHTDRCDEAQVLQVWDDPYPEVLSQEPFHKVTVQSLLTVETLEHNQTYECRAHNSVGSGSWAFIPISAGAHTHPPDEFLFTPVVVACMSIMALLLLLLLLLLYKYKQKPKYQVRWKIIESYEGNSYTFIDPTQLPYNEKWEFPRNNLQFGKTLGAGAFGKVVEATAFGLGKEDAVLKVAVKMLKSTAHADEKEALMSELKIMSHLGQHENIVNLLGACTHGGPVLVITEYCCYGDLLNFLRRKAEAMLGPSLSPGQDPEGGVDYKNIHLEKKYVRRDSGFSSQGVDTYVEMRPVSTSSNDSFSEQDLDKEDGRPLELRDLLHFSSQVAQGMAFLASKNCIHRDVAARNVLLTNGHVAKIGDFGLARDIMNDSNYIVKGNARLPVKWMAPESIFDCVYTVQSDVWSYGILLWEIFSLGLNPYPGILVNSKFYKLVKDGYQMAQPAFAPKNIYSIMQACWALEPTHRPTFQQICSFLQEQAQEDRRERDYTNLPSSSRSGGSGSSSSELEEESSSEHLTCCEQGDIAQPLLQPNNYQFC
T2 sequence (P10721 552-948): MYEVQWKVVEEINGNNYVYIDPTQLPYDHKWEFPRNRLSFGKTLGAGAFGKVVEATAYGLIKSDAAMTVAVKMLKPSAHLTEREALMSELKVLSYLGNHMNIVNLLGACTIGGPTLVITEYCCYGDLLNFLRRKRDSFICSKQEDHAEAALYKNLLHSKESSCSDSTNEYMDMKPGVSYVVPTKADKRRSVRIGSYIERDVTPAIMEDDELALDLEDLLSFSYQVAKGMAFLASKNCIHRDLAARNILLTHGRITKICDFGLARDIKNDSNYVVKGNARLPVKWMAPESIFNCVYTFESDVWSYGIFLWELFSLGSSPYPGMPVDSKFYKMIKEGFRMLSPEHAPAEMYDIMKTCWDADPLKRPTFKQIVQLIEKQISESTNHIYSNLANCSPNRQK
Kdr, sequence (P35968 20-1356): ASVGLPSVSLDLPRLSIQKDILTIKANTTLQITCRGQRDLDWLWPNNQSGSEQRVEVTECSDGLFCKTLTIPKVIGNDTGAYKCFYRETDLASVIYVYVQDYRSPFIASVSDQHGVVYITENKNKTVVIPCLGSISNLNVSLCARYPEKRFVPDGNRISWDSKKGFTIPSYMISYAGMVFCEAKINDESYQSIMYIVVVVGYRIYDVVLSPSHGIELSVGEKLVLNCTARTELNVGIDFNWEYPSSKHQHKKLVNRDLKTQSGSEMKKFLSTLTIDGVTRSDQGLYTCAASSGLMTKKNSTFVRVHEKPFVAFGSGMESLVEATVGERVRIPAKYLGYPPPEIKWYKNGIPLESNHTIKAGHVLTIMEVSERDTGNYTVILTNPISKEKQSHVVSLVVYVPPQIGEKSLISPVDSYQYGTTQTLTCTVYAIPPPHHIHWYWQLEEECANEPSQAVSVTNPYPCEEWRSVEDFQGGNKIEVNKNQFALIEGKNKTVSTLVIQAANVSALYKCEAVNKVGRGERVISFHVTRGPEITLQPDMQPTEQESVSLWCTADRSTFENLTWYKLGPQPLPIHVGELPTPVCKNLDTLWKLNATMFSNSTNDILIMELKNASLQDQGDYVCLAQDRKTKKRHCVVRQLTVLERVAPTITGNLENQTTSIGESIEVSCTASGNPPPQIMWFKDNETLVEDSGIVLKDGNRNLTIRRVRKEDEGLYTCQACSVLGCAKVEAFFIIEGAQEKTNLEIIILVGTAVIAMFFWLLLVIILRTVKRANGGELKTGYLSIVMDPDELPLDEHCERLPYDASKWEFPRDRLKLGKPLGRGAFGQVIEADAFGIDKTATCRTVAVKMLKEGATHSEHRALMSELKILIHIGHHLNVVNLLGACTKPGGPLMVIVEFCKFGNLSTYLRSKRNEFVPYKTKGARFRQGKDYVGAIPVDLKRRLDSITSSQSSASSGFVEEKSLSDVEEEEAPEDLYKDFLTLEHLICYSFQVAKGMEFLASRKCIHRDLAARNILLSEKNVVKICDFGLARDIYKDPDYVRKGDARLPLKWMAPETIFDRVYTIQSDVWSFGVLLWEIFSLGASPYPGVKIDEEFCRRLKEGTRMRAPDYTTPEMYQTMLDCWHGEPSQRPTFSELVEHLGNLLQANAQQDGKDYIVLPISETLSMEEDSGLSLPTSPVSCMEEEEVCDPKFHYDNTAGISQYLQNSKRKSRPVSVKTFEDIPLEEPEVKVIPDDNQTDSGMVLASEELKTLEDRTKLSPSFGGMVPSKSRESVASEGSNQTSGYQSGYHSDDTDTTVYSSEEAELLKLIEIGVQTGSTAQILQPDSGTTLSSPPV
B-Raf V600E, sequence (P15056 whole entry V600E): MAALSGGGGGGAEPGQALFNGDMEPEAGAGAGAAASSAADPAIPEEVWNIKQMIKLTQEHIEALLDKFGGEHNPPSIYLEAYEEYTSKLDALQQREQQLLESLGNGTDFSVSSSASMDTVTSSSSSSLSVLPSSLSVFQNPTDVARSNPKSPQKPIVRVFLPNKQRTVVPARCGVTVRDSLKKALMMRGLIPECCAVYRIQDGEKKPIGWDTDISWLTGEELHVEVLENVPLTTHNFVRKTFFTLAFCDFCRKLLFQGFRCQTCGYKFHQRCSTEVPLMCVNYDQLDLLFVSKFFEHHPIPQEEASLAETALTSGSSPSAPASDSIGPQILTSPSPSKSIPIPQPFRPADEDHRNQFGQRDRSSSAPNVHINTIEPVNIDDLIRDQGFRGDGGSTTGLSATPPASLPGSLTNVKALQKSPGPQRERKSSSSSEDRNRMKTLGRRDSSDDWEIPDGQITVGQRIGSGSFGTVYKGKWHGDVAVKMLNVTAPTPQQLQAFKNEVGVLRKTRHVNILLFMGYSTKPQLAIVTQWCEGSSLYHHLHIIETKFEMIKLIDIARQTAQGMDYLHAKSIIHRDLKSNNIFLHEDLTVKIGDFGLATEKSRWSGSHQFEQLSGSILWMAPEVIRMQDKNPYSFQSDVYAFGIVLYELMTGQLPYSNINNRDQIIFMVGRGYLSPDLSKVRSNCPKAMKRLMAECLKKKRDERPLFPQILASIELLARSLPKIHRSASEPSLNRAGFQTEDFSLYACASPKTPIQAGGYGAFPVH

In the case of `FC(F)(F)c1ccc(COc2ccc(Cc3c[nH]c4ncccc34)cc2C(F)(F)F)cc1` [P-1797, 3-[3-Trifluoromethyl-4-(4-trifluoromethyl-benzyloxy)-benzyl]-1H-pyrrolo[2,3-b]pyridine], the half-maximal inhibitory concentration (IC50) on B-Raf V600E was no more than 10 µM.

On to `O=C(c1c(F)ccc(OCC(F)(F)F)c1Cl)c1c[nH]c2ncccc12` [P-2150, [2-Chloro-6-fluoro-3-(2,2,2-trifluoro-ethoxy)-phenyl]-(1H-pyrrolo[2,3-b]pyridin-3-yl)-methanone], for which the IC50 on Fms and at Kdr was no more than 10 µM in each case.

Turning to `COc1cc(Cc2c[nH]c3ncc(Cl)cc23)c(Cl)cc1OCc1ccc(Cl)cc1F` [P-2167, 5-Chloro-3-[2-chloro-4-(4-chloro-2-fluoro-benzyloxy)-5-methoxy-benzyl]-1H-pyrrolo[2,3-b]pyridine], the half-inhibitory concentration (IC50) on Fms, at Kdr and at Kit was no more than 10 µM each time.

On to `COc1cnc2[nH]cc(Cc3c(Cl)ccc(OCC(F)(F)F)c3Cl)c2c1` [P-2153, 3-[2,6-Dichloro-3-(2,2,2-trifluoro-ethoxy)-benzyl]-5-methoxy-1H-pyrrolo[2,3-b]pyridine], for which the IC50 on Fms and on Kdr was no more than 10 µM in each case.

Consider `Clc1ccc(COc2ccc(Cc3c[nH]c4ncccc34)c(Cl)c2)cc1` [P-1471, 3-[2-Chloro-4-(4-chloro-benzyloxy)-benzyl]-1H-pyrrolo[2,3-b]pyridine], for which the concentration for half-maximal inhibition (IC50) on B-Raf V600E, at Fms and at Kit was no more than 10 µM throughout.

In the case of `COc1cc(Cc2c[nH]c3ncccc23)ccc1OCc1c(F)cc(F)cc1F` [P-1578, 3-[3-Methoxy-4-(2,4,6-trifluoro-benzyloxy)-benzyl]-1H-pyrrolo[2,3-b]pyridine], the half-maximal inhibitory concentration (IC50) on B-Raf V600E and on Kit was no more than 10 µM in each case.

In the case of `CCOc1cc(Cc2c[nH]c3ncccc23)ccc1OCc1ccc(Cl)cc1` [P-1470, 3-[4-(4-Chloro-benzyloxy)-3-ethoxy-benzyl]-1H-pyrrolo[2,3-b]pyridine], the 50% inhibitory concentration (IC50) at B-Raf V600E, on Fms and on Kit was no more than 10 µM in each case.

For `COCCOc1ccc(F)c(Cc2c[nH]c3ncccc23)c1Cl` [P-2158, 3-[2-Chloro-6-fluoro-3-(2-methoxy-ethoxy)-benzyl]-1H-pyrrolo[2,3-b]pyridine], the IC50 on Fms, on Kdr and at Kit was no more than 10 µM in each case.

Take `COc1cc(Cc2c[nH]c3ncccc23)ccc1OCc1c(Cl)cccc1Cl` [P-1579, 3-[4-(2,6-Dichloro-benzyloxy)-3-methoxy-benzyl]-1H-pyrrolo[2,3-b]pyridine]: at B-Raf V600E, the IC50 was no more than 10 µM.

As to `COc1cc(Cc2c[nH]c3ncccc23)cc(F)c1OCc1ccc(Cl)cc1` [P-1466, 3-[4-(4-Chloro-benzyloxy)-3-fluoro-5-methoxy-benzyl]-1H-pyrrolo[2,3-b]pyridine], the IC50 on B-Raf V600E, at Fms and on Kit was no more than 10 µM throughout.

As to `COc1cnc2[nH]cc(Cc3c(F)ccc(OCC(F)(F)F)c3Cl)c2c1` [P-2147, 3-[2-Chloro-6-fluoro-3-(2,2,2-trifluoro-ethoxy)-benzyl]-5-methoxy-1H-pyrrolo[2,3-b]pyridine], the 50% inhibitory concentration (IC50) at Fms and on Kdr was no more than 10 µM in each case.
